Reference: paper doi:10.1101/2022.05.18.492512v2 (biorxiv, 2022)
Substitutions are numbered along the chain they refer to.

Columns and labels:
ABCG5/G8 [1] = biological target: T1, ABCG5/G8 (Homo sapiens, UniProt Q9H221+Q9H222, Q9H222:A540F); experiment: [3H]cholesterol binding, Ni-NTA bead pull-down, scintillation counting
T1 sequence (Q9H222 1-651 A540F): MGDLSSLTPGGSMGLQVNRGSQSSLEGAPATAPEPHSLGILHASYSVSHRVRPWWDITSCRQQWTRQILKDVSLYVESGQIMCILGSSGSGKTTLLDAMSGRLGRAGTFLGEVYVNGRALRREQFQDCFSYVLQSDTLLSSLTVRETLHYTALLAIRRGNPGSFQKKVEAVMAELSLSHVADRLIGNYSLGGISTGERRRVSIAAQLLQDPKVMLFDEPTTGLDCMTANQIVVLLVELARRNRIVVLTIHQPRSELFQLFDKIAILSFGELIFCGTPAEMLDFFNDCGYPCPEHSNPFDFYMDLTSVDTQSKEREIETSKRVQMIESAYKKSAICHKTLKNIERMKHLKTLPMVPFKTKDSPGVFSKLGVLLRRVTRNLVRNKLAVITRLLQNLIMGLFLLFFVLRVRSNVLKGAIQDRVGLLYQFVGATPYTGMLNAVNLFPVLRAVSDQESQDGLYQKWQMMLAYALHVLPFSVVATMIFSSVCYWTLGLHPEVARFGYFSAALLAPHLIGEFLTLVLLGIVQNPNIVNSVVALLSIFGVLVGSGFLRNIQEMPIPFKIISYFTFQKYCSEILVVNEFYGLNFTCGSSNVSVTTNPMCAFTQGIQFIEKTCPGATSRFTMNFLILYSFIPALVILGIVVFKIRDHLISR
T1 sequence (Q9H221 1-673): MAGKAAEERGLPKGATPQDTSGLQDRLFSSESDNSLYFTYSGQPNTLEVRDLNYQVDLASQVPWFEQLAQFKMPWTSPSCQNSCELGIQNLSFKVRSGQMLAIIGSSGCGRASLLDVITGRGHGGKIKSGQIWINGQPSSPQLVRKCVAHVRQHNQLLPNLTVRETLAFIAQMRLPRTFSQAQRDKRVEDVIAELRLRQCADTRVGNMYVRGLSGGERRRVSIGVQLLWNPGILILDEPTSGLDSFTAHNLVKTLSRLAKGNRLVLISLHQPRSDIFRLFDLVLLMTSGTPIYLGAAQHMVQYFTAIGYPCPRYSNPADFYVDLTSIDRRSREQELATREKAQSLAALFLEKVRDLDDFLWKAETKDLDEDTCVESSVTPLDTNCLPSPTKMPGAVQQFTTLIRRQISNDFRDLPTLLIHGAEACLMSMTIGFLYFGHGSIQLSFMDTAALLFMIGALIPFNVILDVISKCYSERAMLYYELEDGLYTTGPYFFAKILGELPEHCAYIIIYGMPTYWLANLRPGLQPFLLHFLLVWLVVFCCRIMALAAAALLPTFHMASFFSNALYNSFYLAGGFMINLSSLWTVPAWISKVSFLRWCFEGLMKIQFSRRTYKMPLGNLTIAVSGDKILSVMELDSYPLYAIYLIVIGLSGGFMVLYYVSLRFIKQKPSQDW

ABCG5/G8 [2] = biological target: T2, ABCG5/G8 (Homo sapiens, UniProt Q9H221+Q9H222); experiment: as above
T2 sequence (Q9H222 1-651): T1 sequence (Q9H222 1-651 A540F) with F540A
T2 sequence (Q9H221 1-673): T1 sequence (Q9H221 1-673)

Kd (ABCG5/G8 [1]): 1550 ± 10 nM | Kd (ABCG5/G8 [2]): 1460 ± 280 nM
SMILES: CC(C)CCC[C@@H](C)[C@H]1CC[C@H]2[C@@H]3CC=C4C[C@@H](O)CC[C@]4(C)[C@H]3CC[C@]12C [cholesterol]
